Experimental data taken from ChEMBL document CHEMBL3414453, “Design and optimization of hybrid of 2,4-diaminopyrimidine and arylthiazole scaffold as anticancer cell proliferation and migration agents” (Eur J Med Chem, 2015).

How the values were obtained:
MCF7 = assay: Cytotoxicity against human MCF7 cells assessed as growth inhibition after 48 hrs by sulforhodamine B assay; assay type: functional, cell-based; settings: MCF7, 48 h
MDA-MB-231 = assay: Cytotoxicity against human MDA-MB-231 cells assessed as growth inhibition after 48 hrs by sulforhodamine B assay; assay type: functional, cell-based; settings: MDA-MB-231, 48 h

## Cc1nc(Nc2ncc(C(=O)Nc3c(C)cccc3Cl)s2)cc(N2CCN(CCO)CC2)n1 [DASATINIB]
MCF7
  IC50: 8.05 µM
MDA-MB-231
  IC50: 1120 nM
